# Data: US7541360B2, “4-amino-7,8-dihydropteridines, pharmaceutical compositions containing them and their use for the treatment of diseases which are caused by an increased nitric oxide level” (Vasopharm GmbH, priority 2003, dated 2009)
# Assay: In vivo stability: half-life for blood clearance after intravenous injection, venous blood analysed by LC-MS/MS
# Conditions: i.v. 1-10 mg/kg, male Sprague-Dawley rats; for t1/2 (dihydro), half-life for blood clearance: corresponding dihydro-derivative formed spontaneously in vivo from the injected tetrahydro-compound, venous blood; for t1/2 (tetrahydro), half-life for blood clearance: injected tetrahydro-compound, venous blood up to eight hours
# Method: The compounds 4-N-cyclohexylmethylamino-5,6,7,8-tetrahydrobiopterin (compound A), 2-amino-4-piperidino-6-phenyl-(R,S)-5,6,7,8-tetrahydropteridin (compound B) and 2-amino-4-di-n-propylamino-6-(4-methoxyphenyl)-(R,S)-5,6,7,8-tetrahydropteridin (compound C) were intravenously injected into male Sprague-Dawley rats (1-10 mg/kg). Venous blood samples were taken up to eight hours after the injections and analyzed for the injected tetrahydro-compounds and for their corresponding dihydro-derivatives, which are spontaneously formed in vivo, by LC-MS/MS.
"t1/2 (dihydro), half-life for blood clearance [min]","t1/2 (tetrahydro), half-life for blood clearance",Molecule
48,<<5 min,"CC(O)C(O)C1CNc2nc(N)nc(NCC3CCCCC3)c2N1 (stereo not drawn) [Compound A, 4-N-cyclohexylmethylamino-5,6,7,8-tetrahydrobiopterin]"
~20,<<5 min,"Nc1nc2c(c(N3CCCCC3)n1)NC(c1ccccc1)CN2 (racemic) [Compound B, 2-amino-4-piperidino-6-phenyl-(R,S)-5,6,7,8-tetrahydropteridin]"
~30,<<5 min,"2-amino-4-di-n-propylamino-6-(4-methoxyphenyl)-(R,S)-5,6,7,8-tetrahydropteridin [Compound C]"
